Among the data in patent publication US20200206233A1 (INTEGRAL BIOSCIENCES PRIVATE LIMITED, priority 2018, published 2020) are IC50 values, retold here.

Holding throughout (assay type): biochemical
The target in assay [1] is T1, IDH1 mutant (R132H) (Homo sapiens, UniProt O75874, R132H).
T1 construct: purchased BPS Bioscience 71099-2
Briefly: Mutant IDH1-R132H Fluorescence Assay (Resazurin based). To be noted: 10 nM IDH1 R132H, 4 mM α-ketoglutarate, NADPH, 1.5 h at room temperature. How it is done: IC50 values of compounds against IDH1 mutant (R132H) was determined by Resazurin based Fluorescence assay. Assays were performed in Buffer (25 mM Tris HCl, 150 mM NaCl, 10 mM MgCl2, 0.03% BSA, 2 mM 1-mercaptoethanol) where total reaction volume was 12.5 μL in low-volume 384-well plates (Cat #4511, Corning). Serially diluted compounds (3-fold) were incubated with cocktail of α-ketoglutarate (4 mM; Cat #75892-25G, Sigma), NADPH ([…]; Cat # N1630-100MG, Sigma) and buffer for 5 min, following IDH1 R132H mutant (10 nM; Cat #71099-2, BPS Bioscience) was added and incubated in dark at room temperature for 1.5 h. After 1.5 h, 6.25 μL detection solution containing Resazurin ([…]; (Cat #62758-13-8, Sigma) and Diaphorase (40 ug/ml; Cat # D2197-300UN, Sigma) in buffer was added and incubated for 15 min. Readings were taken in a Synergy Neo Plate reader (BioTek, Winooski) at single excitation of 540 nm and emission at 590 nm respectively.
(§1) The % (percent) activity of test samples was calculated as (Sample−Min)×100/(Max−Min). [Max: DMSO control, complete reaction with enzyme with DMSO and Min: No enzyme with DMSO]. Percent inhibition (100−% activity) was fitted to the “four-parameter logistic model” in XLfit for determination of IC50 values.
A general note: The colour change of resazurin is a common sign of viable cells or microbes.

Assay [2] addresses T2, IDH1-WT (Homo sapiens, UniProt O75874).
T2 construct: purchased BPS Bioscience 71075-2
Kind of assay: IDH1-WT Fluorescence Assay (Resazurin based). To be noted: 1 nM IDH1-WT, 200 μM isocitrate, 15 μM NADP+, 30 min at room temperature. The procedure: IC50 values of compounds against IDH1-WT was determined by Resazurin based Fluorescence assay. Assays were performed in Buffer (50 mM Tris HCl, 10 mM MgCl2, 0.03% BSA, 2 mM ß-mercaptoethanol) where total reaction volume was 25 μL in low-volume 96-well plates. Serially diluted compounds (3-fold) in DMSO (0.5% in final reaction) were incubated with cocktail of isocitrate (200 μM; Cat # I1252-1G, Sigma), NADP^+ (15 μM; Cat # N0505-500MG, Sigma) and buffer for 5 min, following addition of IDH1-WT enzyme (1 nM; Cat #71075-2, BPS Bioscience) and incubated in dark at room temperature for 30 min. After that, 12.5 μL detection solution containing Resazurin (60 μM; Cat #62758-13-8, Sigma) and Diaphorase (40 μg/ml; Cat # D2197-300UN, Sigma) in buffer was added and incubated for 15 min. Readings were taken using a Synergy Neo Plate reader (BioTek, Winooski) at single excitation of 540 nm and emission at 590 nm respectively.
as §1

In assay [3] the target is T3, IDH2 mutant (R140Q) (Homo sapiens, UniProt P48735, R140Q).
T3 construct: purchased BPS Bioscience 71100-2
T3 sequence (P48735 40-452 R140Q): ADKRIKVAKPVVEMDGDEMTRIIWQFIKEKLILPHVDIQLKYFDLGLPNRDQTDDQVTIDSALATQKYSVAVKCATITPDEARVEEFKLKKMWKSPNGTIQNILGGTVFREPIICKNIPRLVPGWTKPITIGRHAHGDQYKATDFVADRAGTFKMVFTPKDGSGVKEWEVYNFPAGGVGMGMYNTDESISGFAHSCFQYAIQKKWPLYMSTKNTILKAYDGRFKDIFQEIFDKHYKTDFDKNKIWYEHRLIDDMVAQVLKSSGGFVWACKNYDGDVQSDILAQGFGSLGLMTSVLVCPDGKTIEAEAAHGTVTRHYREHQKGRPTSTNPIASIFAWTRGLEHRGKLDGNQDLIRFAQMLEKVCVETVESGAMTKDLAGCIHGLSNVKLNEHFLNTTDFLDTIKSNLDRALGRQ
Kind of assay: Mutant IDH2-R140Q Fluorescence Assay (Resazurin based). To be noted: 5 nM IDH2 R140Q, 4 hr pre-incubation, 1 mM α-ketoglutarate, 5 μM NADPH, 2 h. The procedure:
IC50 values of compounds against IDH2 mutant (R140Q) were determined by Resazurin based Fluorescence assay. Assay was performed in Buffer (25 mM Tris HCl, 150 mM NaCl, 10 mM MgCl2, 0.03% BSA, 2 mM 1-mercaptoethanol) where total reaction volume was 12.5 μL in low-volume 384-well plates (Cat #4511, Corning). Serially diluted compounds (3-fold) were pre-incubated with IDH2 R140Q mutant enzyme (5 nM; Cat #71100-2, BPS Bioscience) for 4 hr at RT (25° C.) followed by addition of cocktail of α-ketoglutarate (1 mM; Cat #75892-25G, Sigma), and NADPH (5 μM; Cat # N1630-100MG, Sigma) with buffer in dark at room temperature for 2 h. After 2 h incubation, 6.25 μL detection solution containing Resazurin (30 μM; (Cat #62758-13-8, Sigma) and Diaphorase (40 ug/ml; Cat # D2197-300UN, Sigma) in buffer was added and incubated for 15 min. Readings were taken in a Synergy Neo Plate reader (BioTek, Winooski) at single excitation of 540 nm and emission at 590 nm respectively.
The % activity of test samples was calculated as (Sample−Min)×100/(Max−Min). [Max: DMSO control, complete reaction with enzyme with DMSO and Min: No enzyme with DMSO]. Percent inhibition (100−% activity) was fitted to the “four-parameter logistic model” in XLfit for determination of IC50 values.

Each structure is given as a SMILES string.

T1 sequence (O75874 whole entry R132H): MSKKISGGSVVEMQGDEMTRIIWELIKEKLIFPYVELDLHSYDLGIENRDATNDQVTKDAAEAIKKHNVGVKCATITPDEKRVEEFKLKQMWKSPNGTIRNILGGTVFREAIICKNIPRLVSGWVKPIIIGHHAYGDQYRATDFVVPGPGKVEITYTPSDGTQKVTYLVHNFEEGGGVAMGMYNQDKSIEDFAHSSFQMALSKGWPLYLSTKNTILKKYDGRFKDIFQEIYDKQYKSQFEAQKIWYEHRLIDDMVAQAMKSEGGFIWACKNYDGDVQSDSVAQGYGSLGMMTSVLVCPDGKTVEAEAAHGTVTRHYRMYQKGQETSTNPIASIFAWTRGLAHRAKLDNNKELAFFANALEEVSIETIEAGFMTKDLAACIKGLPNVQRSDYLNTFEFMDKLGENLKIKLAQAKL
T2 sequence (O75874 whole entry): as the sequence (O75874 whole entry R132H) above, with H132R counted along it

One may read the IC50 as the concentration needed to halve the response being measured. On to `CC[C@H](Nc1ncnc(N2C(=O)OC[C@@H]2C(C)C)n1)c1ccc(Oc2ccccc2)cc1` [Compound 1.35, (S)-4-isopropyl-3-(4-((S)-1-(4-phenoxyphenyl)propylamino)-1,3,5-triazin-2-yl)oxazolidin-2-one], for which the IC50 is 0.868 µM in assay [1], more than 30 µM in assay [2] and more than 50 µM in assay [3].
Regarding `CC[C@H]1COC(=O)N1c1nc(C)nc(N[C@@H](C)c2ccc(Oc3ccccc3)c(C)c2)n1` [Compound 1.86, (S)-4-ethyl-3-(4-methyl-6-((S)-1-(3-methyl-4-phenoxyphenyl)ethylamino)-1,3,5-triazin-2-yl)oxazolidin-2-one], the concentration for half-maximal inhibition (IC50) was 0.277 µM in assay [1], more than 50 µM in assay [2] and more than 50 µM in assay [3].
Take `CC[C@H]1COC(=O)N1c1nc(N[C@@H](C)c2cn(-c3ccc(C(F)(F)F)cc3)cn2)nc(OC)n1` [Compound 1.41, (S)-4-ethyl-3-(4-methoxy-6-((S)-1-(1-(4-(trifluoromethyl)phenyl)-1H-imidazol-4-yl)ethylamino)-1,3,5-triazin-2-yl)oxazolidin-2-one]: the values for the half-maximal inhibitory concentration (IC50) in assay [1], in assay [2] and in assay [3] were 0.707 µM, more than 50 µM and more than 50 µM, respectively.
`Cc1cc([C@H](C)Nc2ncnc(N3C(=O)OC[C@@H]3C(C)C)n2)ncc1-c1ccnc(C(F)(F)F)c1` [Compound 1.21, (S)-4-isopropyl-3-(4-((S)-1-(4-methyl-2′-(trifluoromethyl)-3,4′-bipyridin-6-yl)ethylamino)-1,3,5-triazin-2-yl)oxazolidin-2-one]: the IC50 in assay [1] is 1.4 µM; in assay [2], more than 50 µM; in assay [3] it was more than 50 µM.
In the case of `Cc1cc(-c2cnc([C@@H](C)Nc3ncnc(N4C(=O)OC[C@@H]4C(C)C)n3)nc2)ccc1F` [Compound 1.2, (4S)-3-(4-{[(1R)-1-[5-(4-fluoro-3-methylphenyl)pyrimidin-2-yl]ethyl]amino}-1,3,5-triazin-2-yl)-4-(propan-2-yl)-1,3-oxazolidin-2-one], the IC50 in assay [1] and in assay [2] was more than 50 µM throughout.
Turning to `CC(C)[C@H]1COC(=O)N1c1ncnc(N[C@H](C)c2ccc(Cl)c(Cl)c2)n1` [Compound 1.6, (S)-3-(4-((R)-1-(3,4-dichlorophenyl)ethylamino)-1,3,5-triazin-2-yl)-4-isopropyloxazolidin-2-one], the half-inhibitory concentration (IC50) in assay [1] and in assay [2] was more than 30 µM each time.
Regarding `CC(C)[C@H]1COC(=O)N1c1ncnc(N[C@@H](C)c2ccc(-c3ccnc(C(F)(F)F)c3)cn2)n1` [Compound 1.11, (S)-4-isopropyl-3-(4-((S)-1-(2′-(trifluoromethyl)-3,4′-bipyridin-6-yl)ethylamino)-1,3,5-triazin-2-yl)oxazolidin-2-one], the IC50 in assay [1] is 11.4 µM; in assay [3], more than 50 µM.
On to `CC(C)[C@H]1COC(=O)N1c1ncnc(N[C@@H](C)c2ccc(-c3ccc(F)cc3)cn2)n1` [Compound 1.12, (S)-3-(4-((S)-1-(5-(4-fluorophenyl)pyridin-2-yl)ethylamino)-1,3,5-triazin-2-yl)-4-isopropyloxazolidin-2-one], for which the IC50 in assay [1] is 9.01 µM; in assay [3] it was more than 50 µM.
As to `CC[C@H]1COC(=O)N1c1nc(C)nc(N[C@H](C)c2ccc(Oc3ccccc3)cn2)n1` [Compound 1.76, (S)-4-ethyl-3-(4-methyl-6-((R)-1-(5-phenoxypyridin-2-yl)ethylamino)-1,3,5-triazin-2-yl)oxazolidin-2-one], the concentration for half-maximal inhibition (IC50) in assay [1] is more than 23.3 µM.
For `CC[C@H]1COC(=O)N1c1nc(C)nc(N[C@H](C)c2ccc(Oc3cccnc3C(F)(F)F)cc2)n1` [Compound 1.80, (S)-4-ethyl-3-(4-methyl-6-((R)-1-(4-(2-(trifluoromethyl)pyridin-3-yloxy)phenyl)ethylamino)-1,3,5-triazin-2-yl)oxazolidin-2-one], the IC50 in assay [1] is 10.2 µM.
Consider `CC[C@H]1COC(=O)N1c1nc(C)nc(NCc2cc3cc(Cl)ccc3[nH]c2=O)n1` [Compound 1.57, (S)-3-(4-((6-chloro-2-oxo-1,2-dihydroquinolin-3-yl)methylamino)-6-methyl-1,3,5-triazin-2-yl)-4-ethyloxazolidin-2-one], for which the IC50 in assay [1] is 2.07 µM.
